Measurements from paper PMC5590943, “Pharmacological characterisation of S 47445, a novel positive allosteric modulator of AMPA receptors” (PLoS ONE, 2017).
Several values for one entry are separate records, joined by “and”; a condition that tells them apart may be missing. Equal values may be shown once.

Legend:
[1] = molecular target: A2A (h) (Homo sapiens, UniProt P29274); assay: Binding assay, [3H]CGS 21680
[2] = test system: AMPA; assay: Binding assay, [3H]AMPA, rat cerebral cortex membranes
[3] = test system: α1 (non-selective); assay: Binding assay, [3H]prazosin
[4] = molecular target: p38a kinase (h) (Homo sapiens, UniProt Q16539); assay: Enzyme and cell-based assay, ATP + ATF-2 (0.1 μM)
Chain of p38a kinase (h) (Q16539 whole entry): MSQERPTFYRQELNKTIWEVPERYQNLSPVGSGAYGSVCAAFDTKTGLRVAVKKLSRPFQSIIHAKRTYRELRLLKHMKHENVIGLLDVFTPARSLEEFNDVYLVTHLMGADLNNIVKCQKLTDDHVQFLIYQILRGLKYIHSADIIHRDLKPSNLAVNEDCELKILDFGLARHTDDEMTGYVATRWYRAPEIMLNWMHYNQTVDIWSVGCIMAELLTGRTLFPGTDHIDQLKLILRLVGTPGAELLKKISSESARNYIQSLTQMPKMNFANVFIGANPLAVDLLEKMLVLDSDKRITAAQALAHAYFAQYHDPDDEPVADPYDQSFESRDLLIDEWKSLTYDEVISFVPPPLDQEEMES

[5] = test system: male adult Wistar rats; assay: Spontaneous locomotor activity in rats; type: in vivo, rat; details: 10, 30 and 100 mg/kg p.o. acute; n = 9
Method: Locomotor activity was recorded in male adult Wistar rats (180–200 g, Janvier Labs, Le Genest Saint Isle, France) placed in cages in a soundproof keeping room (open-field). A remote surveillance appliance allowed to observe and to record animal behaviour from an adjacent room. The movie camera was connected to an automatic analysis system (videotrack software, Viewpoint, Lissieu, France). The distance covered (cm) was automatically computed for each rat. Rats were orally administered 1 h before the test with S 47445 (10, 30 and 100 mg/kg) or vehicle. Locomotor activity was recorded during 30 min divided in 3 x 10-min periods. The total covered distance over 30 min was analysed using one way (dose) ANOVA, followed in case of significance of the dose effect by Dunnett’s test (versus vehicle controls). The significance threshold was set at 5%. Analyses were performed using SAS v9.2 software (SAS Institute, Cary, NC).

[6] = test system: Ca2+ channel (L, verapamil site) phenylalkylamines); assay: Binding assay, [3H](-)D 888
[7] = molecular target: 5-HT1B (Rattus norvegicus, UniProt P28564); assay: Binding assay, [125I]CYP (+ 30 μM (-)propranolol); details: probe [125I]CYP
Chain of 5-HT1B (P28564 whole entry): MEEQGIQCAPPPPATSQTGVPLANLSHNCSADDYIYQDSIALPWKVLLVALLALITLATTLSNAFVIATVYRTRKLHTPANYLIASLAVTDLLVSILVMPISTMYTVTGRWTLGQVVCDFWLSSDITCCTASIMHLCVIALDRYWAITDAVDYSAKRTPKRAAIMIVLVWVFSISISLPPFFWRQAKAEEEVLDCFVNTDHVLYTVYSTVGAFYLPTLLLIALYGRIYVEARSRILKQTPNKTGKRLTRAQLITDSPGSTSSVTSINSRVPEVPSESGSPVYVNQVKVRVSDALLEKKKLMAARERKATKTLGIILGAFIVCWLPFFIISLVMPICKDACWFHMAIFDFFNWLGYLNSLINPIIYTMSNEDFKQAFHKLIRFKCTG

[8] = test system: I2; assay: Binding assay, [3H]idazoxan
[9] = test system: Male Wistar rats; assay: Functional observation battery in rats (Irwin); type: in vivo, rat
Method: Any effects on body temperature were also assessed. Methods were adapted from those described by Irwin, 1968 for detecting behavioural effects in mice.
Male Wistar rats (Depré breeding centre, France), 6 weeks of age (160.0–190.6 g) on the day of randomisation were used. On the day of the test, animals were first scored using the Irwin standardised observation battery, and the body temperature was measured to establish baseline measurements. Groups of rats were then orally treated with S 47445 (50, 200, 500 and 1000 mg/kg) or its vehicle or clonidine, a reference item (3 mg/kg in water). The Irwin scores as well as measurement of body temperature were performed again at 1, 2, 4, 6 and 24 hours after administration of S 47445. Individual observation data were presented as a score attributed to each behavioural sign (intensity and relevance). For observations with absence or presence, the number of animals with the sign was provided per group. For other observations, the median value for each sign per time was presented per group. For body temperature, data were expressed as variations from predose values. […] The treatment effect on body temperature was analysed using one way ANOVA followed by Newman-Keul’s post hoc test. […]

[10] = test system: Ca2+ channel (L, diltiazem site) (benzothiazepines); assay: Binding assay, [3H]diltiazem
[11] = test system: Guanylyl cyclase (stimulated); assay: Enzyme and cell-based assay, GTP (0.1 mM) / SNP (10 μM)
[12] = test system: Rat AMPA receptors; assay: AMPA-evoked currents, Xenopus laevis oocytes injected with rat cortex poly(A+) mRNA (two-electrode voltage clamp); type: cell-based; details: geometric mean
Method: Compounds were tested by bath application.

Chain of A2A (h) (P29274 whole entry): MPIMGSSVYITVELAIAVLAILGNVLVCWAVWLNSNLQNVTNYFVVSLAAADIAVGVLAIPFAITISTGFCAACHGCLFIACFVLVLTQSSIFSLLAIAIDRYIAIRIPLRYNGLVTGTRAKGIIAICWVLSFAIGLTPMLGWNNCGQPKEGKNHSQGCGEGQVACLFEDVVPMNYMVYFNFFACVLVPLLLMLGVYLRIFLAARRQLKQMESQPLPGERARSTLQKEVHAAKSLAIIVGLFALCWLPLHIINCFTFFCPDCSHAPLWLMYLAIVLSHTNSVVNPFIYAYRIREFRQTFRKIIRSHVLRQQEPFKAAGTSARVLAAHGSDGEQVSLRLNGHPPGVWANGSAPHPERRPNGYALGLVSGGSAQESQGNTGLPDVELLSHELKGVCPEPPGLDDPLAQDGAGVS

O=C1c2cc3nnn(CCc4cccc(F)c4)c(=O)c3cc2OCN1C1CC1 [S 47445, 8-cyclopropyl-3-[2-(3-fluorophenyl)ethyl]-7,8-dihydro-3H-[1,3]oxazino[6,5-g][1,2,3]benzotriazine-4,9-dione]
% Inhibition of control specific binding ([1]; S 47445 1.0E-05 M): 9%
% Inhibition of control specific binding ([1]; S 47445 1.0E-07 M): -8%
% Inhibition of control specific binding ([2]; S 47445 1.0E-05 M): -8%
% Inhibition of control specific binding ([2]; S 47445 1.0E-07 M): 1%
Ki ([2]; read-out: Ki, glutamate binding site, n = 2): > 10 µM
% Inhibition of control specific binding ([3]; S 47445 1.0E-05 M): 1%
% Inhibition of control specific binding ([3]; S 47445 1.0E-07 M): -5%
% Inhibition of control specific binding ([4]; S 47445 1.0E-05 M): 4%
% Inhibition of control specific binding ([4]; S 47445 1.0E-07 M): 2%
Total distance of spontaneous locomotor activity [5]: did not significantly modify
% Inhibition of control specific binding ([6]; S 47445 1.0E-05 M): -1%
% Inhibition of control specific binding ([6]; S 47445 1.0E-07 M): 4%
inhibition at 100 nM [7]: -7%
inhibition at 10 µM [7]: -3%
% Inhibition of control specific binding ([8]; S 47445 1.0E-05 M): 29%
% Inhibition of control specific binding ([8]; S 47445 1.0E-07 M): -5%
Body temperature and behavior ([9]; 50, 200, 500 and 1000 mg/kg oral acute): no significant effect
Spontaneous epileptic seizures ([9]; up to 1000 mg/kg p.o.): No occurrence
% Inhibition of control specific binding ([10]; S 47445 1.0E-05 M): 25%
% Inhibition of control specific binding ([10]; S 47445 1.0E-07 M): -6%
% Inhibition of control specific binding ([11]; S 47445 1.0E-05 M): 7%
% Inhibition of control specific binding ([11]; S 47445 1.0E-07 M): -14%
EC2X ([12]; concentration giving a two-fold increase in current amplitude): 1.53 µM
EC50 ([12]; potentiation of 10 μM AMPA-evoked current): 6.5 µM and 6.54 µM
